These results are taken from US9630961B2, “Arginine methyltransferase inhibitors and uses thereof” (Epizyme, Inc., priority 2013, dated 2017).

Molecules are shown by their SMILES.

The target in this assay is T1, PRMT6 (Homo sapiens, UniProt Q96LA8).
T1 construct: Flag-PRMT6-His; made in house; host or cells: HEK 293F cells (BacMam virus)
T1 sequence (Q96LA8 with tags, fused parts or gaps): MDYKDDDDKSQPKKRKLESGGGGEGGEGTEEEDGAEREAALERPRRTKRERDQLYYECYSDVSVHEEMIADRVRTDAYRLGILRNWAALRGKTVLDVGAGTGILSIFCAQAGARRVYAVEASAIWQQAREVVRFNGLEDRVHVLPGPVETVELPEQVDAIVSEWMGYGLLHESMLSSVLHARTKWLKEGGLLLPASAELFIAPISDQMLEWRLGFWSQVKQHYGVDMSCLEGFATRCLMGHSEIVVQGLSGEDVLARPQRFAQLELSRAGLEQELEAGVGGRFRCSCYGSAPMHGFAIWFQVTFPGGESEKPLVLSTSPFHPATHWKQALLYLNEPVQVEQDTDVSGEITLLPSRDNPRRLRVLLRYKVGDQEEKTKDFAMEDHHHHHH
Put plainly: PRMT6 Biochemical Assay (3H-SAM Flashplate, peptide substrate). The following applies: 30 min preincubation, room temperature. An excerpt: S-adenosylmethionine (SAM), S-adenosylhomocysteine (SAH), bicine, Tween20, dimethylsulfoxide (DMSO), bovine skin gelatin (BSG), sodium butyrate and Tris(2-carboxyethyl)phosphine hydrochloride solution (TCEP) were purchased from Sigma-Aldrich at the highest level of purity possible. ^3H-SAM was purchase from American Radiolabeled Chemicals with a specific activity of 80 Ci/mmol. 384-well streptavidin Flashplates were purchased from PerkinElmer.
Peptide representative of human histone H4 residues 36-50 was synthesized with an N-terminal linker-affinity tag motif and a C-terminal amide cap by 21st Century Biochemicals. The peptide was purified by high-performance liquid chromatography (HPLC) to greater than 95% purity and confirmed by liquid chromatography mass spectrometry (LC-MS). The sequence was Biot-Ahx-[…]-amide and contained a monomethylated lysine at position 44 (SEQ ID NO.:5).
Full-length human PRMT6 (NM_018137.2) transcript clone was amplified from an HEK 293 cDNA library, incorporating a flanking 5′ sequence encoding a FLAG tag ([…]) (SEQ ID NO.:6) fused directly to Ser 2 of PRMT6 and a 3′ sequence encoding a hexa His sequence (HHHHHH) fused directly to Asp 375. The amplified gene was subcloned into pFastBacMam (Viva Biotech).
Recombinant baculovirus were generated according to Bac-to-Bac kit instructions (Life Technologies). […] Infections were carried out at 37° C. for 48 hours, harvested by centrifugation, and stored at −80° C. for purification.
Column was washed with 20 mM imidazole in the same buffer and Flag-PRMT6-His was eluted with 150 mM imidazole. Pooled fractions were dialysed against buffer Ni-A and further purified by anti-flag M2 affinity chromatography. Flag-PRMT6-His was eluted with 200 ug/ml FLAG peptide in the same buffer. Pooled fractions were dialysed in 20 mM Tris, 150 mM NaCl, 10% glycerol and 5 mM β-mercaptoethanol, pH 7.8. The purity of recovered protein was 95%.
General Procedure for PRMT6 Enzyme Assays on Peptide Substrates.
The assays were all performed in a buffer consisting of 20 mM Bicine (pH=7.6), 1 mM TCEP, 0.005% BSG, and 0.002% Tween 20, prepared on the day of use. Compounds in 100% DMSO (1 ul) were spotted into a polypropylene 384-well V-bottom plates (Greiner) using a Platemate Plus outfitted with a 384-channel head (Thermo Scientific). DMSO (1 ul) was added to Columns 11, 12, 23, 24, rows A-H for the maximum signal control and 1 ul of SAH, a known product and inhibitor of PRMT6, was added to columns 11, 12, 23, 24, rows I-P for the minimum signal control. A cocktail (40 ul) containing the PRMT6 enzyme was added by Multidrop Combi (Thermo-Fisher). The compounds were allowed to incubate with PRMT6 for 30 min at room temperature, then a cocktail (10 ul) containing SAM and peptide was added to initiate the reaction (final volume=51 ul). The final concentrations of the components were as follows: PRMT6 was 1 nM, ^3H-SAM was 200 nM, non-radiolabeled SAM was 250 nM, peptide was 75 nM, SAH in the minimum signal control wells was 1 mM, and the DMSO concentration was 2%. The assays were stopped by the addition of non-radiolabeled SAM (10 ul) to a final concentration of 400 uM, which dilutes the ^3H-SAM to a level where its incorporation into the peptide substrate is no longer detectable. 50 ul of the reaction in the 384-well polypropylene plate was then transferred to a 384-well Flashplate and the biotinylated peptides were allowed to bind to the streptavidin surface for at least 1 hour before being washed once with 0.1% Tween20 in a Biotek ELx405 plate washer. The plates were then read in a PerkinElmer TopCount plate reader to measure the quantity of ^3H-labeled peptide bound to the Flashplate surface, measured as disintegrations per minute (dpm) or alternatively, referred to as counts per minute (cpm).
Where dpm=disintegrations per minute, cmpd=signal in assay well, and min and max are the respective minimum and maximum signal controls. […]
As a reminder, the IC50 is the midpoint of a concentration-inhibition curve. Low values mean greater potency in that assay, high ones weaker potency in that assay. `CN(CCN)Cc1c[nH]nc1-c1ccsc1` [Compound 3]: the IC50 was at most 100 nM.

Molecule `CN(CCN)Cc1c[nH]nc1-c1cncnc1` [Compound 4] yielded an IC50 of 101 to 1000 nM.

In the case of `CN(CCN)Cc1c[nH]nc1-c1cccs1` [Compound 5], the IC50 lay within 101 to 1000 nM.

Molecule `CN(CCN)Cc1c[nH]nc1-c1ccco1` [Compound 6] displayed an IC50 of 101 to 1000 nM.

`CN(CCN)Cc1c[nH]nc1-c1ccoc1` [Compound 7]: the 50% inhibitory concentration (IC50) fell in the range of 101 to 1000 nM.

Turning to `CN(CCN)Cc1c[nH]nc1-c1cnn(C)c1` [Compound 8], the half-maximal inhibitory concentration (IC50) was at most 100 nM.

For `CN(CCN)Cc1c[nH]nc1-c1ccc2scnc2c1` [Compound 9], the IC50 was at most 100 nM.

As for `Cc1noc(C)c1-c1n[nH]cc1CN(C)CCN` [Compound 10], the IC50 is at least 10000 nM.

The molecule `COc1ncc(-c2n[nH]cc2CN(C)CCN)cn1` [Compound 11] registered a half-maximal inhibitory concentration (IC50) of 101 to 1000 nM.

On to `CN(CCN)Cc1c[nH]nc1-c1cn[nH]c1` [Compound 12], for which the half-inhibitory concentration (IC50) is 101 to 1000 nM.

`CN(CCN)Cc1c[nH]nc1-c1cnc2[nH]ccc2c1` [Compound 13] showed a half-maximal inhibitory concentration (IC50) of at most 100 nM.

`CN(CCN)Cc1c[nH]nc1-c1cc[nH]n1` [Compound 14] returned a half-maximal inhibitory concentration (IC50) of 1010 to 3000 nM.

`CN(CCN)Cc1c[nH]nc1-c1ccnn1C` [Compound 15] had a half-maximal inhibitory concentration (IC50) of 1010 to 3000 nM.

For the molecule `CCn1cc(-c2n[nH]cc2CN(C)CCN)cn1` [Compound 16], the IC50 was at most 100 nM.

For `CN(CCN)Cc1c[nH]nc1-c1cnn(-c2ccccc2)c1` [Compound 17], the 50% inhibitory concentration (IC50) is at most 100 nM.

`CN(CCN)Cc1c[nH]nc1-c1cnn(CCO)c1` [Compound 18] registered a 50% inhibitory concentration (IC50) of at most 100 nM.

The molecule `CN(CCN)Cc1c[nH]nc1-c1ccc2cnn(C)c2c1` [Compound 19, N^1-methyl-N^1-((3-(1-methyl-1H-indazol-6-yl)-1H-pyrazol-4-yl)methyl)ethane-1,2-diamine] had an IC50 of at most 100 nM.

For `CN(CCN)Cc1c[nH]nc1-c1ccc2ncnn2c1` [Compound 20], the IC50 was at most 100 nM.

In the case of `CN(CCN)Cc1c[nH]nc1-c1ccc2nccn2c1` [Compound 21, N^1-((3-(imidazo[1,2-a]pyridin-6-yl)-1H-pyrazol-4-yl)methyl)-N^1-methylethane-1,2-diamine], the IC50 was at most 100 nM.

In the case of `CC(C)n1cc(-c2n[nH]cc2CN(C)CCN)cn1` [Compound 22], the IC50 was at most 100 nM.

Molecule `CC(C)Cn1cc(-c2n[nH]cc2CN(C)CCN)cn1` [Compound 23, N^1-((2′-isobutyl-3,4′-bi(1H-pyrazol)-4-yl)methyl)-N^1-methylethane-1,2-diamine] came in with an IC50 of at most 100 nM.

Consider `CN(CCN)Cc1c[nH]nc1-c1cnn(Cc2ccccc2)c1` [Compound 24, N^1-((1′-benzyl-3,4′-bi(1H-pyrazol)-4-yl)methyl)-N^1-methylethane-1,2-diamine], for which the IC50 is at most 100 nM.

As for `Cc1n[nH]c(C)c1-c1n[nH]cc1CN(C)CCN` [Compound 25], the IC50 is at least 10000 nM.

Turning to `CN(CCN)Cc1c[nH]nc1-c1ccc2[nH]ncc2c1` [Compound 27, N^1-((3-(1H-indazol-5-yl)-1H-pyrazol-4-yl)methyl)-N^1-methylethane-1,2-diamine], the IC50 is at most 100 nM.

With `CN(CCN)Cc1c[nH]nc1-c1cnc(C2CC2)nc1` [Compound 28], the IC50 lay within 101 to 1000 nM.

In turn, `CN(CCN)Cc1c[nH]nc1-c1ccc[nH]1` [Compound 29] had an IC50 of 1010 to 3000 nM.

With `CN(CCN)Cc1c[nH]nc1-c1cccc2[nH]ncc12` [Compound 30], the 50% inhibitory concentration (IC50) was at most 100 nM.
